Data from patent publication US20210045385A1, “PYRIDAZINONE-SUBSTITUTED KETOXIMES AS HERBICIDES” (FMC Corporation, priority 2018, published 2021).

Experiments:
Assay type in all cases: in vivo
[1] = tested on: Italian ryegrass (Lolium multiflorum); experiment: Test A preemergence, visual plant response rating; conditions: for Ryegrass, Italian plant response rating: 125 g ai/ha, preemergence, 0 to 100 scale, 0 no effect, 100 complete control; for Ryegrass, Italian plant response rating (0 to 100 scale): 500 g ai/ha Preemergence, approx. 10 days
Procedure, shortened: (§1)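 Greenhouse pot test in loam–sand soil mix: compound in a surfactant-containing non-phytotoxic solvent applied preemergence (directed soil spray) or postemergence (one- to two-leaf plants, 2–10 cm). Injury scored visually after ~10 days, 0–100.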

[2] = tested on: barnyardgrass (Echinochloa crus-galli); experiment: Test A preemergence, visual plant response rating; conditions: for Barnyardgrass plant response rating: 125 g ai/ha, preemergence, 0 to 100 scale, 0 no effect, 100 complete control; for Barnyardgrass plant response rating (0 to 100 scale): 500 g ai/ha Preemergence, approx. 10 days
Procedure, shortened: as §1

[3] = tested on: foxtail, giant (giant foxtail, Setaria faberii); experiment: Test A preemergence, visual plant response rating; conditions: for Foxtail, Giant plant response rating: 125 g ai/ha, preemergence, 0 to 100 scale, 0 no effect, 100 complete control; for Foxtail, Giant plant response rating (0 to 100 scale): 500 g ai/ha Preemergence, approx. 10 days
Procedure, shortened: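 Ratings use a 0–100 visual scale (100 = complete control) against untreated controls, scored about 10 days after greenhouse treatment. Test chemicals were formulated in surfactant-containing non-phytotoxic solvent and applied either as soil spray after planting (preemergence) or onto one- to two-leaf, 2–10 cm plants (postemergence).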

[4] = tested on: kochia (Kochia scoparia); experiment: Test A preemergence, visual plant response rating; conditions: for Kochia plant response rating: 125 g ai/ha, preemergence, 0 to 100 scale, 0 no effect, 100 complete control; for Kochia plant response rating (0 to 100 scale): 500 g ai/ha Preemergence, approx. 10 days
Procedure, shortened: as §1

[5] = tested on: pigweed (Amaranthus retroflexus); experiment: Test A preemergence, visual plant response rating; conditions: for Pigweed plant response rating: 125 g ai/ha, preemergence, 0 to 100 scale, 0 no effect, 100 complete control; for Pigweed plant response rating (0 to 100 scale): 500 g ai/ha Preemergence, approx. 10 days
Procedure, shortened: as §1

[6] = tested on: ragweed (common ragweed, Ambrosia elatior); experiment: Test A preemergence, visual plant response rating; conditions: for Ragweed plant response rating: 125 g ai/ha, preemergence, 0 to 100 scale, 0 no effect, 100 complete control; for Ragweed plant response rating (0 to 100 scale): 500 g ai/ha Preemergence, approx. 10 days
Procedure, shortened: as §1

[7] = tested on: Italian ryegrass (Lolium multiflorum); experiment: Test A postemergence, visual plant response rating; conditions: for Ryegrass, Italian plant response rating (0 to 100 scale): 500 g ai/ha, postemergence, 0 is no effect, 100 is complete control; for Ryegrass, Italian plant response rating: Postemergence, 125 g ai/ha, 0 to 100 scale (0 no effect, 100 complete control)
Procedure, shortened: as §1

[8] = tested on: barnyardgrass (Echinochloa crus-galli); experiment: Test A postemergence, visual plant response rating; conditions: for Barnyardgrass plant response rating (0 to 100 scale): 500 g ai/ha, postemergence, 0 is no effect, 100 is complete control; for Barnyardgrass plant response rating: Postemergence, 125 g ai/ha, 0 to 100 scale (0 no effect, 100 complete control)
Procedure, shortened: as §1

[9] = tested on: blackgrass (Alopecurus myosuroides); experiment: Test A postemergence, visual plant response rating; conditions: for Blackgrass plant response rating (0 to 100 scale): 500 g ai/ha, postemergence, 0 is no effect, 100 is complete control; for Blackgrass plant response rating: Postemergence, 125 g ai/ha, 0 to 100 scale (0 no effect, 100 complete control)
Procedure, shortened: as §1

[10] = tested on: corn (Zea mays); experiment: Test A postemergence, visual plant response rating; conditions: for Corn plant response rating (0 to 100 scale): 500 g ai/ha, postemergence, 0 is no effect, 100 is complete control; for Corn plant response rating: Postemergence, 125 g ai/ha, 0 to 100 scale (0 no effect, 100 complete control)
Procedure, shortened: as §1

[11] = tested on: foxtail, giant (giant foxtail, Setaria faberii); experiment: Test A postemergence, visual plant response rating; conditions: for Foxtail, Giant plant response rating (0 to 100 scale): 500 g ai/ha, postemergence, 0 is no effect, 100 is complete control; for Foxtail, Giant plant response rating: Postemergence, 125 g ai/ha, 0 to 100 scale (0 no effect, 100 complete control)
Procedure, shortened: as §1

[12] = tested on: galium (catchweed bedstraw, Galium aparine); experiment: Test A postemergence, visual plant response rating; conditions: for Galium plant response rating (0 to 100 scale): 500 g ai/ha, postemergence, 0 is no effect, 100 is complete control; for Galium plant response rating: Postemergence, 125 g ai/ha, 0 to 100 scale (0 no effect, 100 complete control)
Procedure, shortened: as §1

[13] = tested on: kochia (Kochia scoparia); experiment: Test A postemergence, visual plant response rating; conditions: for Kochia plant response rating (0 to 100 scale): 500 g ai/ha, postemergence, 0 is no effect, 100 is complete control; for Kochia plant response rating: Postemergence, 125 g ai/ha, 0 to 100 scale (0 no effect, 100 complete control)
Procedure, shortened: as §1

[14] = tested on: pigweed (Amaranthus retroflexus); experiment: Test A postemergence, visual plant response rating; conditions: for Pigweed plant response rating (0 to 100 scale): 500 g ai/ha, postemergence, 0 is no effect, 100 is complete control; for Pigweed plant response rating: Postemergence, 125 g ai/ha, 0 to 100 scale (0 no effect, 100 complete control)
Procedure, shortened: as §1

[15] = tested on: ragweed (common ragweed, Ambrosia elatior); experiment: Test A postemergence, visual plant response rating; conditions: for Ragweed plant response rating (0 to 100 scale): 500 g ai/ha, postemergence, 0 is no effect, 100 is complete control; for Ragweed plant response rating: Postemergence, 125 g ai/ha, 0 to 100 scale (0 no effect, 100 complete control)
Procedure, shortened: as §1

[16] = tested on: wheat (Triticum aestivum); experiment: Test A postemergence, visual plant response rating; conditions: for Wheat plant response rating (0 to 100 scale): 500 g ai/ha, postemergence, 0 is no effect, 100 is complete control; for Wheat plant response rating: Postemergence, 125 g ai/ha, 0 to 100 scale (0 no effect, 100 complete control)
Procedure, shortened: as §1

[17] = tested on: barnyardgrass (Echinochloa crus-galli); experiment: Test B flooded paddy test, visual plant response rating; conditions: 250 g ai/ha, Flood, applied to paddy water, 2-leaf stage, evaluated after 13 to 15 days
Procedure, shortened: (§2)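 Compounds added straight into paddy water of pots flooded to 3 cm, with 2-leaf-stage plants of the four species; water level held throughout.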

[18] = tested on: ducksalad (Heteranhera limosa); experiment: as above; conditions: 250 g ai/ha, Flood, applied to paddy water, 2-leaf stage, evaluated after 13 to 15 days
Procedure, shortened: as §2

[19] = tested on: rice (Oryza sativa); experiment: as above; conditions: 250 g ai/ha, Flood, applied to paddy water, 2-leaf stage, evaluated after 13 to 15 days
Procedure, shortened: as §2

[20] = tested on: sedge, umbrella (small-flower umbrella sedge, Cyperus difformis); experiment: as above; conditions: 250 g ai/ha, Flood, applied to paddy water, 2-leaf stage, evaluated after 13 to 15 days
Procedure, shortened: as §2

| Structure (SMILES) | Ryegrass, Italian plant response rating [1] | Ryegrass, Italian plant response rating (0 to 100 scale) [1] | Barnyardgrass plant response rating [2] | Barnyardgrass plant response rating (0 to 100 scale) [2] | Foxtail, Giant plant response rating [3] | Foxtail, Giant plant response rating (0 to 100 scale) [3] | Kochia plant response rating [4] | Kochia plant response rating (0 to 100 scale) [4] | Pigweed plant response rating [5] | Pigweed plant response rating (0 to 100 scale) [5] | Ragweed plant response rating [6] | Ragweed plant response rating (0 to 100 scale) [6] | Ryegrass, Italian plant response rating (0 to 100 scale) [7] | Ryegrass, Italian plant response rating [7] | Barnyardgrass plant response rating (0 to 100 scale) [8] | Barnyardgrass plant response rating [8] | Blackgrass plant response rating (0 to 100 scale) [9] | Blackgrass plant response rating [9] | Corn plant response rating (0 to 100 scale) [10] | Corn plant response rating [10] | other results |
| --- | --- | --- | --- | --- | --- | --- | --- | --- | --- | --- | --- | --- | --- | --- | --- | --- | --- | --- | --- | --- | --- |
| C#CCO/N=C(/c1c(O)c(C)nn(C)c1=O)c1ccc(F)c2ccccc12 [Compound 109, 4-[(E)-(4-fluoro-1-naphthalenyl)[(2-propyn-1-yloxy)imino]methyl]-5-hydroxy-2,6-dimethyl-3(2H)-pyridazinone] | 100 | 100 | 90 | 100 | 100 | 100 | 10 | 50 | 100 | 100 | 90 | 100 | 100 | 100 | 90 | 90 | 100 | 90 | 70 | 20 | Foxtail, Giant plant response rating (0 to 100 scale) [11]: 90; Foxtail, Giant plant response rating [11]: 80; Galium plant response rating (0 to 100 scale) [12]: 100; Galium plant response rating [12]: 100; Kochia plant response rating (0 to 100 scale) [13]: 90; Kochia plant response rating [13]: 70; Pigweed plant response rating (0 to 100 scale) [14]: 100; Pigweed plant response rating [14]: 90; Ragweed plant response rating (0 to 100 scale) [15]: 90; Ragweed plant response rating [15]: 80; Wheat plant response rating (0 to 100 scale) [16]: 90; Wheat plant response rating [16]: 90; Plant response rating, Barnyardgrass (0 to 100 scale, 0 is no effect, 100 is complete control) [17]: 50; Plant response rating, Ducksalad (0 to 100 scale, 0 is no effect, 100 is complete control) [18]: 40; Plant response rating, Rice (0 to 100 scale, 0 is no effect, 100 is complete control) [19]: 45; Plant response rating, Sedge, Umbrella (0 to 100 scale, 0 is no effect, 100 is complete control) [20]: 60 |
| CON=C(c1c(O)c(C)nn(C)c1=O)c1cccc2ccc(Cl)cc12 [Compound 110] | 60 | 70 | 70 | 80 | 60 | 100 | 0 | 10 | 50 | 100 | 40 | 90 | 80 | 30 | 70 | 50 | 90 | 90 | 30 | 10 | Foxtail, Giant plant response rating (0 to 100 scale) [11]: 90; Foxtail, Giant plant response rating [11]: 50; Galium plant response rating (0 to 100 scale) [12]: 100; Galium plant response rating [12]: 90; Kochia plant response rating (0 to 100 scale) [13]: 60; Kochia plant response rating [13]: 50; Pigweed plant response rating (0 to 100 scale) [14]: 100; Pigweed plant response rating [14]: 90; Ragweed plant response rating (0 to 100 scale) [15]: 90; Ragweed plant response rating [15]: 60; Wheat plant response rating (0 to 100 scale) [16]: 0; Wheat plant response rating [16]: 0; Plant response rating, Barnyardgrass (0 to 100 scale, 0 is no effect, 100 is complete control) [17]: 0; Plant response rating, Ducksalad (0 to 100 scale, 0 is no effect, 100 is complete control) [18]: 0; Plant response rating, Rice (0 to 100 scale, 0 is no effect, 100 is complete control) [19]: 0; Plant response rating, Sedge, Umbrella (0 to 100 scale, 0 is no effect, 100 is complete control) [20]: 0 |
